This series is described as follows: Sustained release study (fluorescence intensity vs. time). The class given is physicochemical. The method, then: Step 3: Sustained Release Study
FIGS. 6a and 6b show the sustained release of chloramphenicol (at 1 and 4 molar concentrations, respectively) from the liposomes described above as a function of fluorescence intensity vs. time at a release rate of about 0.65 mg/day.

For the compound `O=C(N[C@H](CO)[C@H](O)c1ccc([N+](=O)[O-])cc1)C(Cl)Cl` [chloramphenicol], the release rate entry (sustained release from liposomes, 1 and 4 molar concentrations (FIGS. 6a, 6b)) was “about 0.65 mg/day”. For vitamin E, the release rate result (sustained release from reverse micelles (FIG. 6c)) is “about 113 mg/day”.

(Values after patent US20130004651A1, “SUSTAINED DRUG RELEASE FROM BODY IMPLANTS USING NANOPARTICLE-EMBEDDED POLYMERIC COATING MATERIALS” (priority 2011, published 2013).)
